Data published in publication PMC6934184, “Selective DNA-PKcs inhibition extends the therapeutic index of localized radiotherapy and chemotherapy” (The Journal of Clinical Investigation, 2019).

Molecular target: T1, FLT1 (VEGFR1) (Homo sapiens, UniProt P17948)
T1 construct: purchased Thermo Fisher Scientific (Life Technologies) SelectScreen
Assay: SelectScreen Z'LYTE
Assay type: biochemical
Method in brief: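 Percent values come from Thermo SelectScreen profiling of NU5455, combining activity and binding assays. CSF1R was run in Z'LYTE format at Km app ATP, and CAMK1 in Adapta format with ATP listed at 10.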

T1 sequence (P17948 27-1338): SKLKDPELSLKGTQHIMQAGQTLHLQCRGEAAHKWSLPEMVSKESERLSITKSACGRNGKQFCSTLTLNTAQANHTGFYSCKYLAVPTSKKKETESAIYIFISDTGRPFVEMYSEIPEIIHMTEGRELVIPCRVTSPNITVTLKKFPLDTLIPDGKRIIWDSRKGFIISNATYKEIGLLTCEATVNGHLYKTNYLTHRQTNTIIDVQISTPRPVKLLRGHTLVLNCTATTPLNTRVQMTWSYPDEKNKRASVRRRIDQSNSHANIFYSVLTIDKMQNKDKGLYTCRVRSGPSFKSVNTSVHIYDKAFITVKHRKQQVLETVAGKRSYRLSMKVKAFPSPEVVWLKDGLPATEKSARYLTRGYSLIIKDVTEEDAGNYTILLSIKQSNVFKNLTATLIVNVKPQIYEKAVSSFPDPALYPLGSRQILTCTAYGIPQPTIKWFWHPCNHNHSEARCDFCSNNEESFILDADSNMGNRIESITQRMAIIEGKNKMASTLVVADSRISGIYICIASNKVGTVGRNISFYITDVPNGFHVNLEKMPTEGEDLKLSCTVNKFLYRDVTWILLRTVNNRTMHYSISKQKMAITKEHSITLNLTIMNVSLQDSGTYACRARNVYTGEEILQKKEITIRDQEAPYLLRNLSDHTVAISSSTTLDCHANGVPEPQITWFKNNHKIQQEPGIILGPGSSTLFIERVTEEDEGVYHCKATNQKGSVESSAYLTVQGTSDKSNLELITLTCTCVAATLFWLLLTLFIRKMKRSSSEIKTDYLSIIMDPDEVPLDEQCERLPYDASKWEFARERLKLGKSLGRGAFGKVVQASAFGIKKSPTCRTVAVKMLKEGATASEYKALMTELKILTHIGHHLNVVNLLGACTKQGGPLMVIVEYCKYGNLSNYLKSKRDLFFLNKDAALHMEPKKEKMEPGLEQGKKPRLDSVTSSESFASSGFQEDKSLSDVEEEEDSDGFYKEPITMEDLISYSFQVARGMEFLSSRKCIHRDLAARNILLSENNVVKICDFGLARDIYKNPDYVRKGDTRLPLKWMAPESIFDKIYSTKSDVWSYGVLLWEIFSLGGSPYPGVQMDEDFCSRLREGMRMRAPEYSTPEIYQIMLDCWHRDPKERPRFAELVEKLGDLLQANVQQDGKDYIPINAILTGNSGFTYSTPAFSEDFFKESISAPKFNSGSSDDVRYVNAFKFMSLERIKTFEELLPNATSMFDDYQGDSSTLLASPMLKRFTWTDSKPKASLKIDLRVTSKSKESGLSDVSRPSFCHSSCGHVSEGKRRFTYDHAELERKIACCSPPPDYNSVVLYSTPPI

`CN(C(=O)CN1CCOCC1)c1ccc2sc3c(-c4cccc5c(=O)cc(N6CC7CCC(C6)O7)oc45)cccc3c2c1` [NU5455] gave an inhibition at 1 µM of 6.5%.
